The nature of series [1]: pH of quaternary compounds, fatty acids and their reaction products in water (calibrated pH meter). It counts as physicochemical. The settings on record: for pH of product compound (reaction of quaternary compound with fatty acid): molar ratio DDAC to fatty acid 1:1, 70-75 °C, after 10 minutes. How it is done:
Example 2 was repeated employing the fatty acids; Conjugated Linoleic Acid (CLA); eicosapentaenoic acid (EPA); and gamma linolenic acid (GLA), were all dissolved in water and the pH of the resulting solutions were measured with a calibrated pH meter.
Three solutions of DDAC (188.2 g) in distilled water (2,000 g) were contacted with masses of CLA, EPA and GLA, such that the molar ratio of DDAC to each of the aforementioned fatty acids was 1:1 at a temperature of 70° C. to 75° C. and after 10 minutes the pH of the reaction products of each of these products was measured.
Merquat 550 is a trademark owned by Calgon, Inc. its manufacturer, for a proprietary cationic polymer having a repeating unit molecular weight of 680 and an overall molecular weight of about 10,000. The pH of these first transdermal compositions were measured. […] Ten minutes after acid addition, the pH of the product composition were measured.

Series [2] in a line: Stability of benzethonium chloride added to the transdermal mixtures. It counts as physicochemical. As to the method:
When benzethonium chloride is added in therapeutically effective amounts to the mixtures described herein, it is stable if added at ambient temperature at a pH greater than 6. On the other hand, it is not stable if added at temperatures below the Freezing Zone and above ambient temperature at a pH of about 7.5 to about 8.

For series [3], the system named is open wounds. Nature of the series: Seventh transdermal composition on open wounds of patients (healing, pain). It counts as in vivo. From the text: As one skilled in the art can well appreciate there are endless numbers of combinations that can be made to create the desired skin effects. For example, when the quaternary ammonium salt, such as […] (DDAC), and the like, is present in a neutral pH in the first transdermal composition of the present invention described hereinabove, the formic acid from the bug bite is more effectively and more rapidly neutralized. On the other hand, when the quaternary ammonium salt, e.g., DDAC, is present in the seventh transdermal composition of the present invention, the healing rate on open wounds improves. However, when the quaternary ammonium salt, e.g., DDAC, is not substantially converted to the first reaction product, some of the patients, approximately 25% thereof, feel pain.

Setting [4] is: DDAC split between first reaction product (80%) and unreacted DDAC (20%).

With “dimethyl distearyl ammonium stearate [DDAS]”, the “pH of product compound (reaction of quaternary compound with fatty acid)” value in series [1] was determined as 2.38.
Consider `CC(C)(C)CC(C)(C)c1ccc(OCCOCC[N+](C)(C)Cc2ccccc2)cc1` [benzethonium chloride], for which the “Stability of benzethonium chloride in the mixture” value in series [2] (added above the Freezing Zone, tip speed greater than Critical Shear Rate, pH about 7.5 to about 8) is “stable”; in series [2] (added at ambient temperature at pH greater than 6), “stable”; in series [2] (added below the Freezing Zone and above ambient temperature at pH about 7.5 to about 8), “not stable”.
Take `CC/C=C\C/C=C\C/C=C\CCCCCCCC(=O)[O-].CCCCCCCCCCCCCCCCCC[N+](C)(C)CCCCCCCCCCCCCCCCCC` [DDAL, Dimethyl Distearyl Ammonium Linolenate]: the “pH of product compound (reaction of quaternary compound with fatty acid)” value in series [1] turned out to be 2.28.
Turning to benzalkonium chloride [BAC], the “pH of Quat and Stearic Acid” value in series [1] (70-75 °C, stearic acid 40 g, ten minutes after acid addition) is reported as 2.40. Besides, the “pH of quaternary compound” value in series [1] (mixed with distilled water (2,000 g), before heating) stood at 7.83.
Regarding Conjugated Linoleic Acid [CLA], the “pH of fatty acid dissolved in water” value in series [1] (fatty acid alone in water) is given as “(4.00)”.
For the compound `CCCCCCCCCCCCCCCCCC[N+](C)(C)CCCCCCCCCCCCCCCCCC.[Cl-]` [DDAC, dimethyl distearyl ammonium chloride], the “pH of quaternary compound in water” value in series [1] (DDAC 188.2 g in distilled water 2,000 g) was 5.38. In series [3] (DDAC not substantially converted to the first reaction product), the “Patients who feel pain” value was “approximately 25%”. Besides, in series [3] (setting [4]), the Healing result is reported as “rapid healing” and the Pain result is “did not feel pain”.

(Values after patent publication US7888393B2, “Transdermal compositions” (Microdermis Corporation, priority 2002, dated 2011).)
